Inhibition and IC50 data for 9 compounds are collected here from patent US9474758B2, “Thienopyrimidinedione derivatives as TRPA1 modulators” (Glenmark Pharmaceuticals S.A., priority 2009, dated 2016).

pIC50: −log10 of the molar value.

A word on the inhibition: it is the share of the control response that was lost under treatment. What is called pIC50 is the IC50 on a negative log10 scale, so that one unit is a factor of ten.

The target in test [1] is T1, Rat TRPA1 expressing CHO cells (Rattus norvegicus, UniProt Q6RI86).
T1 construct: expressed in transfected cells; host or cells: CHO cells (Zeocin selection)
Briefly: 45Calcium uptake assay, inhibition of AITC induced calcium uptake (rat). The class given is cell-based. The conditions noted are these: rat TRPA1 CHO cells, AITC 10 μM; for inhibition at 1 µM: compound 1.0 μM, read-out: Percentage inhibition at 1.0 μM; for inhibition at 10 µM: compound 10.0 μM, read-out: Percentage inhibition at 10.0 μM; for pIC50: read-out: Rat IC50 value (Range). In short, it runs like this:
(§1)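 CHO cells expressing rat or human TRPA1 were pre-treated with compound for 10 min, then given AITC (30 μM human, 10 μM rat) plus 5 μCi/ml 45Ca2+ for 3 min; final DMSO 0.5%. Lysate radioactivity was counted by scintillation. IC50 came from nonlinear regression of concentration-response curves as % of maximal response.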

Test [2] deals with T2, Human TRPA1 expressing CHO cells (Homo sapiens, UniProt O75762).
T2 construct: expressed in transfected cells; host or cells: CHO cells (G-418 selection)
Briefly: 45Calcium uptake assay, inhibition of AITC induced calcium uptake (human). The class given is cell-based. As to conditions: human TRPA1 CHO cells, AITC 30 μM; for inhibition at 1 µM: compound 1.0 μM, read-out: Percentage inhibition at 1.0 μM; for inhibition at 10 µM: compound 10.0 μM, read-out: Percentage inhibition at 10.0 μM; for pIC50: read-out: Human IC50 value (Range). The method in brief: as §1

T1 sequence (Q6RI86 whole entry): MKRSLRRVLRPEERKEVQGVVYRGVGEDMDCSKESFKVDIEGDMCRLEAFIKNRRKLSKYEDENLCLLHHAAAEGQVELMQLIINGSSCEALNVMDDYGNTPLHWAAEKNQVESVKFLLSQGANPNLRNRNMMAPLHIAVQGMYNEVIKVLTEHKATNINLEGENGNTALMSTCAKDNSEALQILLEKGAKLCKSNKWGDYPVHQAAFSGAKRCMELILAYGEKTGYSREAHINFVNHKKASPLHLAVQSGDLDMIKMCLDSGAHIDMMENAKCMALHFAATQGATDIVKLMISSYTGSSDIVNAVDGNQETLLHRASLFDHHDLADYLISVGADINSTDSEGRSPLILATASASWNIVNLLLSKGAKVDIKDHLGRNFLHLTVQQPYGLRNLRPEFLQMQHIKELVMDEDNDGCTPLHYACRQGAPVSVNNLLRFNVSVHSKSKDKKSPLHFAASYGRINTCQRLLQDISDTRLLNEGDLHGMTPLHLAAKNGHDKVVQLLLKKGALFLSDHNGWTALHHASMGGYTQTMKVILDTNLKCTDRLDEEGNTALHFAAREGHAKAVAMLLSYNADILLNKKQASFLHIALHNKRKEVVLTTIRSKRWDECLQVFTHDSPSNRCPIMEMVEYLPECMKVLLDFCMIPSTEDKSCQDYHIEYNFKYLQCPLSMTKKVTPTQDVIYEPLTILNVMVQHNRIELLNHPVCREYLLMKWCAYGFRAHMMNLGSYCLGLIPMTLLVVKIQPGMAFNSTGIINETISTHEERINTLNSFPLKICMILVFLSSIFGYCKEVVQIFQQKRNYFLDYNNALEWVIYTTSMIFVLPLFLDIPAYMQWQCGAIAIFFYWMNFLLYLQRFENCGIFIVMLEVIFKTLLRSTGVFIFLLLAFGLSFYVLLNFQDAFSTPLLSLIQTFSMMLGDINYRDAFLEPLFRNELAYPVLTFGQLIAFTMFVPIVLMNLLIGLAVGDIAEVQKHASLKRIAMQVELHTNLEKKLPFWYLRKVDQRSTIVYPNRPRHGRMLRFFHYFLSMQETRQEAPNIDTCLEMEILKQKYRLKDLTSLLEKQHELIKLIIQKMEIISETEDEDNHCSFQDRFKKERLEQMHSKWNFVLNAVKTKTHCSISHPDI
T2 sequence (O75762 whole entry): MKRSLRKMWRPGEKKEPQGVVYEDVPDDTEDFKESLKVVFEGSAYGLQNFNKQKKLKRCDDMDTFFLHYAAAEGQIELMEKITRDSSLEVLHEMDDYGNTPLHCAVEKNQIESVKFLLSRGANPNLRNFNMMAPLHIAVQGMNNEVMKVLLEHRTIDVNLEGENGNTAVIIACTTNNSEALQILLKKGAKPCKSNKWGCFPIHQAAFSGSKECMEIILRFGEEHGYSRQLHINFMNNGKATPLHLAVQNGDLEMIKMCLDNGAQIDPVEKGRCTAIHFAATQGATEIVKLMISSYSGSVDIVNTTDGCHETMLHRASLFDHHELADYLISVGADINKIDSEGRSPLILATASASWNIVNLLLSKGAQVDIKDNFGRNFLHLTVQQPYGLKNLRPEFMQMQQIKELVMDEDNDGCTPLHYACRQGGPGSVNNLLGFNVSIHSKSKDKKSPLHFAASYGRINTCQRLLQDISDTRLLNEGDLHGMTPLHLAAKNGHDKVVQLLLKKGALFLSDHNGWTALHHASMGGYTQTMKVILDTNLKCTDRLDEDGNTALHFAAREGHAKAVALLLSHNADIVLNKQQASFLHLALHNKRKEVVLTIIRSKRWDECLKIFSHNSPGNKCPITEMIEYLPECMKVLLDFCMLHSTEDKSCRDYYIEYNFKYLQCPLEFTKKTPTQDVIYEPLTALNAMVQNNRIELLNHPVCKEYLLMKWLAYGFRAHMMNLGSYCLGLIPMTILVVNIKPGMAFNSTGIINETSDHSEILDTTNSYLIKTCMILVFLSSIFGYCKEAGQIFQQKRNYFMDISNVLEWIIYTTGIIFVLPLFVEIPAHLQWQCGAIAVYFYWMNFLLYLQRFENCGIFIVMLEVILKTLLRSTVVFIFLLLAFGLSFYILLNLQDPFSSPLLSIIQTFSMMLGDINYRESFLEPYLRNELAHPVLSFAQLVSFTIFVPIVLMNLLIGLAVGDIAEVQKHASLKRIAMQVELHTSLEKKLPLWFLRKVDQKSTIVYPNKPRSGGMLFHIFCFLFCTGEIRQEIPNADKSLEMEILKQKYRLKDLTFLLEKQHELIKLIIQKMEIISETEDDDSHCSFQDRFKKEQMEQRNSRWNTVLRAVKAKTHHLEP

In the case of `Cn1c(=O)c2c(CC(=O)Nc3nc(-c4ccc(OC(F)(F)F)c(F)c4)cs3)scc2n(C)c1=O` [Example 52, 2-(1,3-Dimethyl-2,4-dioxo-1,2,3,4-tetrahydrothieno[3,4-d]pyrimidin-5-yl)-N-{4-[3-fluoro-4-(trifluoromethoxy)phenyl]-1,3-thiazol-2-yl}acetamide], in test [1], the inhibition at 1 µM stood at 92.3%, the inhibition at 10 µM came out at 98.1% and the pIC50 is 6.30 to 7.30. Also, in test [2], the inhibition at 1 µM amounted to 98%, the inhibition at 10 µM came to 94.4% and the pIC50 was greater than 7.30.

Take `Cn1c(=O)c2c(CC(=O)Nc3nc(-c4ccc(Cl)c(Cl)c4)cs3)scc2n(C)c1=O` [Example 53, N-[4-(3,4-Dichlorophenyl)-1,3-thiazol-2-yl]-2-(1,3-dimethyl-2,4-dioxo-1,2,3,4-tetrahydrothieno[3,4-d]pyrimidin-5-yl)acetamide]: in test [1], the inhibition at 1 µM is 42.7% and the inhibition at 10 µM came out at 97.9%. Further, in test [2], the inhibition at 1 µM stood at 97.8%, the inhibition at 10 µM turned out to be 99.3% and the negative logarithm of the IC50 (pIC50) is 6.30 to 7.30.

Turning to `Cn1c(=O)c2c(CC(=O)Nc3nc(-c4cc(F)cc(C(F)(F)F)c4)cs3)scc2n(C)c1=O` [Example 54, 2-(1,3-Dimethyl-2,4-dioxo-1,2,3,4-tetrahydrothieno[3,4-d]pyrimidin-5-yl)-N-{4-[3-fluoro-5-(trifluoromethyl)phenyl]-1,3-thiazol-2-yl}acetamide], in test [1], the inhibition at 1 µM turned out to be 41.6% and the inhibition at 10 µM came to 91.8%. In test [2], the inhibition at 1 µM is 95.1%, the inhibition at 10 µM stood at 99.7% and the pIC50 was greater than 7.30.

As for `Cn1c(=O)c2c(CC(=O)Nc3nc(-c4ccc(F)c(OC(F)(F)F)c4)cs3)scc2n(C)c1=O` [Example 55, 2-(1,3-Dimethyl-2,4-dioxo-1,2,3,4-tetrahydrothieno[3,4-d]pyrimidin-5-yl)-N-{4-[4-fluoro-3-(trifluoromethoxy)phenyl]-1,3-thiazol-2-yl}acetamide], in test [1], the inhibition at 1 µM came to 70.4% and the inhibition at 10 µM came out at 99.9%. Further, in test [2], the inhibition at 1 µM amounted to 99.6%, the inhibition at 10 µM came to 99.8% and the pIC50 is greater than 7.30.

As for `Cn1c(=O)c2c(CC(=O)Nc3nc(-c4ccc(C(F)(F)F)c(F)c4F)cs3)scc2n(C)c1=O` [Example 56, N-{4-[2,3-Difluoro-4-(trifluoromethyl)phenyl]-1,3-thiazol-2-yl}-2-(1,3-dimethyl-2,4-dioxo-1,2,3,4-tetrahydrothieno[3,4-d]pyrimidin-5-yl)acetamide], in test [1], the inhibition at 1 µM worked out at 96.9%, the inhibition at 10 µM turned out to be 100% and the pIC50 is 6.30 to 7.30. Also, in test [2], the inhibition at 1 µM turned out to be 94.4%, the inhibition at 10 µM was determined as 99.5% and the pIC50 is greater than 7.30.

Regarding `Cn1c(=O)c2c(CC(=O)Nc3nc(-c4ccc(F)c(C(F)(F)F)c4F)cs3)scc2n(C)c1=O` [Example 57, N-{4-[2,4-Difluoro-3-(trifluoromethyl)phenyl]-1,3-thiazol-2-yl}-2-(1,3-dimethyl-2,4-dioxo-1,2,3,4-tetrahydrothieno[3,4-d]pyrimidin-5-yl)acetamide], in test [1], the inhibition at 1 µM was 97%, the inhibition at 10 µM was determined as 100% and the pIC50 is greater than 7.30. In test [2], the inhibition at 1 µM was 96.9%, the inhibition at 10 µM turned out to be 91% and the pIC50 is greater than 7.30.

As for `Cn1c(=O)c2c(CC(=O)Nc3nc(-c4cc(F)c(C(F)(F)F)c(F)c4)cs3)scc2n(C)c1=O` [Example 58, N-{4-[3,5-difluoro-4-(trifluoromethyl)phenyl]-1,3-thiazol-2-yl}-2-(1,3-dimethyl-2,4-dioxo-1,2,3,4-tetrahydrothieno[3,4-d]pyrimidin-5-yl)acetamide], in test [1], the inhibition at 1 µM stood at 71.1% and the inhibition at 10 µM came out at 71.7%. In test [2], the inhibition at 1 µM came out at 84.9%, the inhibition at 10 µM was found to be 95.8% and the pIC50 was greater than 7.30.

Take `Cn1c(=O)c2c(CC(=O)Nc3nc(-c4cc(F)c(OC(F)F)c(F)c4)cs3)scc2n(C)c1=O` [Example 59, N-{4-[4-(Difluoromethoxy)-3,5-difluorophenyl]-1,3-thiazol-2-yl}-2-(1,3-dimethyl-2,4-dioxo-1,2,3,4-tetrahydrothieno[3,4-d]pyrimidin-5-yl)acetamide]: in test [1], the inhibition at 1 µM is 12.7% and the inhibition at 10 µM came out at 87.6%. Moreover, in test [2], the inhibition at 1 µM worked out at 89.3%, the inhibition at 10 µM was determined as 91.4% and the pIC50 is greater than 7.30.

For `Cn1c(=O)c2c(CC(=O)Nc3nc(-c4cc(F)c(OCC(F)(F)F)c(F)c4)cs3)scc2n(C)c1=O` [Example 60, N-{4-[3,5-Difluoro-4-(2,2,2-trifluoro-ethoxy)phenyl]-1,3-thiazol-2-yl}-2-(1,3-dimethyl-2,4-dioxo-1,2,3,4-tetrahydrothieno[3,4-d]pyrimidin-5-yl)acetamide], in test [1], the inhibition at 1 µM is 21% and the inhibition at 10 µM came out at 95.9%. In test [2], the inhibition at 1 µM amounted to 98%, the inhibition at 10 µM came out at 97.4% and the negative logarithm of the IC50 (pIC50) is greater than 7.30.
